Reference: paper PMC9231303, “Pharmacokinetic–Pharmacometabolomic Approach in Early-Phase Clinical Trials: A Way Forward for Targeted Therapy in Type 2 Diabetes” (Pharmaceutics, 2022)
Several values for one entry are separate records, joined by “and”; a condition that tells them apart may be missing. Identical values can stand only once. Entries after “also recorded” stand apart in the source; their conditions may differ. Like-named read-outs stand apart in the source and are kept apart here.

Tests used:
[1] = cited from earlier work
[2] = Clinical safety, adverse event and glucose monitoring after single-dose metformin 1000 mg in healthy subjects; assay type: in vivo, human
Method: Three cohorts were planned to ensure sufficient clinical ward staff and space to monitor every subject on the dosing day. Subjects were housed in a controlled environment, and standardized meals were provided to each cohort. The blood samples were collected using an ethylenediaminetetraacetic acid (EDTA) tube and centrifuged at 10,000 rpm for 10 min at 4. The plasma samples together with the urine samples were kept in a -80 °C freezer in cryovials for further analysis. The subjects were monitored for adverse events until seven days post-dose. Pre-dose and peak-concentration plasma samples were used for untargeted pharmacometabolomic analysis to determine the treatment metabotypes.

[3] = test system: human metabolic pathways (KEGG); assay: Untargeted urine pharmacometabolomics (pre-dose U0 versus U1 0–4 h, U2 4–8 h, U3 8–12 h, n = 6), mummichog functional pathway analysis; assay type: in vivo; settings: urine collections 0–12 h
clinical = settings: human, in vivo
[4] = test system: human metabolic pathways (KEGG); assay: Untargeted plasma pharmacometabolomics dataset A (pre-dose versus T2.5, 3, 3.5 h, n = 6), mummichog functional pathway analysis; settings: time course 0–12 h

For CN(C)C(=N)N=C(N)N [metformin], the Tmax (male, human, in vivo) was 3 h, the T_max (male, human, in vivo, po) was 2.5 (2.5–3.0) h and the CL (male, human, in vivo, po, 1000 mg) was 1884 (32.3) mL/min. For the same molecule, the Tmax (subject S6) was 2 h, the Tmax (subject S8) was 3.5 h and 2 h and the Cmax (subject S10) was 1391.3 ng/mL. For the same molecule, the Tmax (subject S15) was 4 h, the Tmax (subject S16) was 2 h and the Cmax (subject S17) was 1381.7 ng/mL. The Tmax (subject S17) was 4 h, the peak plasma concentration ([1]; diabetic patients, 1000 mg twice daily chronically) was “approximately 40 µM” and the “plasma concentration reached within three hours” value ([1]; oral 1000 mg, non-diabetic subjects) was 25 µM. The Glucose ([2]; 4 hours post-dose (before lunch), mean of 17 subjects) was 4.7 mmol/L, the Glucose ([2]; 4 hours post-dose, subject S01) was 5.0 mmol/L and the Glucose ([2]; 4 hours post-dose, subject S02) was 4.7 mmol/L. The Glucose ([2]; 4 hours post-dose, subject S04) was 4.8 mmol/L, the Glucose ([2]; 4 hours post-dose, subject S05) was 5.2 mmol/L and the Glucose ([2]; 4 hours post-dose, subject S06) was 4.6 mmol/L. It also gave a Glucose ([2]; 4 hours post-dose, subject S07) of 4.7 mmol/L, a Glucose ([2]; 4 hours post-dose, subject S08) of 4.3 mmol/L and a Glucose ([2]; 4 hours post-dose, subject S09) of 4.4 mmol/L. For the same molecule, the Glucose ([2]; 4 hours post-dose, subject S10) was 4.9 mmol/L, the Glucose ([2]; 4 hours post-dose, subject S11) was 4.7 mmol/L and the Glucose ([2]; 4 hours post-dose, subject S12) was 5.2 mmol/L. For the same molecule, the Glucose ([2]; 4 hours post-dose, subject S13) was 4.4 mmol/L, the Glucose ([2]; 4 hours post-dose, subject S14) was 4.7 mmol/L and the Glucose ([2]; 4 hours post-dose, subject S15) was 4.4 mmol/L. For the same molecule, the Glucose ([2]; 4 hours post-dose, subject S16) was 4.9 mmol/L, the Glucose ([2]; 4 hours post-dose, subject S17) was 4.6 mmol/L and the Glucose ([2]; 4 hours post-dose, subject S18) was 3.9 mmol/L. The clinical laboratory characteristics ([2]; screening versus follow-up, clinician judgement) was “within normal range and considered no significant changes”, the adverse drug reaction ([2]; single dose 1000 mg, 17 healthy subjects, monitored until seven days post-dose) was “One subject experienced abdominal pain after the dosing; also recorded: stomach cramps; also recorded: one side effect was observed” and the “metformin in urine (untargeted LCMS, positive mode)” value [3] was “achieved high concentration in the first 8 h and a slight reduction during 8–12 h”. For the same molecule, the Cmax (clinical; 1000 mg, subject S4) was 1430 ng/mL, the Cmax (clinical; 1000 mg, subject S9) was 1170 ng/mL and the Tmax (clinical; male) was 2.65 h. For the same molecule, the AUC(0-t) (clinical; male, 1000 mg) was 10900 ng·h/mL, the k el (clinical; male, Ke) was 3.97e-05 s⁻¹ and the AUC (clinical; male, po, 1000 mg) was 9510 ng·h/mL. For the same molecule, the AUC(0-t) (clinical; male, po, 1000 mg, AUC_0–24) was 8960 ng·h/mL and the “metformin intensity in plasma (untargeted LCMS, positive mode)” value [4] was “a reducing trend happened at 8 h and a return to zero at 12 h”.
